Entries after “also recorded” stand apart in the source; their conditions may differ.
What was measured:
[1] = tested on: primary mouse keratinocytes; experiment: cytokine ELISAs from primary keratinocyte culture media; format: cell-based
Protocol: Adult (6-8 weeks) mouse keratinocytes were isolated from male or female animals using protocols described previously (57). In brief, tail skin was incubated in 1 mg/ml Dispase II (Roche) overnight at 4° C. The epidermis was physically removed from the dermis with tweezers following Dispase II treatment, subsequently digested with TrypLE (Thermo) for 20 min at room temperature, and keratinocytes were detached by vigorously shaking in EpiLife culture medium and filtered with a 70 μm strainer (Fisher scientific). Isolated cells were seeded at a density of 10^5 cells/cm^2 cultured with EpiLife (Gibco) in 12-well plates precoated with coating matrix (Gibco) and used between 3 and 5 days after isolation.
For cytokine ELISAs, primary keratinocytes were either mock-treated or treated with 8 μM TCT or 30 μM iE-DAP for 24 h Culture medium was harvested and centrifuged at 500 g for 15 mins and analyzed using ELISA kits detecting CXCL1 (KC), IL-6, TNF-α, IL-1α and IL-1β (R&D systems) following the manufacturer's protocols. In brief, 96-well ELISA plates were coated with capture antibody overnight at room temperature. The next day, the plate was washed three times with wash buffer and incubated with harvested media (100 μl) for 2 h followed by three washes and then probed with biotin-labelled detection antibody for 2 h. After three washes with wash buffer, plates were incubated with HRP-streptavidin for 20 min at room temperature (RT), developed with TMB (3,3′,5,5″-tetramethylbenzidine) substrate for 20 min at RT, and then stopped with IN sulfuric acid. Plate was analyzed at 450 nm with wavelength correction at 540 nm.

Slc46a2 = target: T1, Slc46a2 (Mus musculus, UniProt Q8CA03); experiment: click-muropeptide uptake into keratinocytes (CalFluor 488 Azide, confocal imaging and lysate fluorescence); format: cell-based; conditions: WT or Nod1−/− keratinocytes, 30 μM click-iE-DAP; MTX 250 μM or unlabeled iE-DAP 30 μM
T1 construct: primary mouse keratinocytes, which express Slc46a2 and Nod1; endogenous in cells; host or cells: primary mouse epidermal keratinocytes (WT or Nod1-/-; Slc46a2-/- cells served as the negative control)
T1 sequence (Q8CA03 1-479): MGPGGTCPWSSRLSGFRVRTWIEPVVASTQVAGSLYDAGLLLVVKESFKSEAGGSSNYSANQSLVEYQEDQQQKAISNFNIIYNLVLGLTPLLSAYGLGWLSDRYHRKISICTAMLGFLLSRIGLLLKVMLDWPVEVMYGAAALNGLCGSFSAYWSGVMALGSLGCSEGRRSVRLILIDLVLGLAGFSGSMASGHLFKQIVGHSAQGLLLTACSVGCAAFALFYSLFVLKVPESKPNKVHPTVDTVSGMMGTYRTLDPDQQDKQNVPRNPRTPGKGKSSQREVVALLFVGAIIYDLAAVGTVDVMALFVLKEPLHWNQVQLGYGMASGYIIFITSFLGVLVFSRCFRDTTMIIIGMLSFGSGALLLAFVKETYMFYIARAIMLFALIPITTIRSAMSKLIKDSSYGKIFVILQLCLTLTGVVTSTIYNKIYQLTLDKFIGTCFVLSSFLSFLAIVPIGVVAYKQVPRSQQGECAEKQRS
Protocol: For visualization, mouse keratinocytes were challenged with click-iE-DAP (30 μM) or click-MDP (20 μM) 37° C. for 30-60 min, cells washed 2× with 1×PBS to remove access of click-muropeptides and fixed with 4% paraformaldehyde in PBS at RT for 10 min. Cells were permeabilized with 1% Triton-X in PBS for 10 min at RT and blocked with 1% BSA in PBS. These permeabilized cells were then incubated in click-reaction conditions (250 μM CuSO4, 35 μM BTAA, 60 μM sodium ascorbate) with 2.5 μM CalFluor 488 Azide at RT for 30 mins. Cells were then washed and mounted on slides, with DAPI containing mounting media. Slides were imaged with a Leica SP8 confocal microscope.

[2] = tested on: mouse skin (NOD1/NOD2 response); experiment: neutrophil recruitment to pinnae after intradermal injection; format: in vivo; conditions: TCT 8 μM, iE-DAP 30 μM
Protocol: […] After 3 h, both ears were individually harvested, and stored in ice cold PBS on ice until further processing for flow cytometry staining.
Pinnae were cut into small pieces and incubated for 30 min at 37° C. in a solution of 1 mg/ml collagenase (Sigma) in DMEM media containing 10% FBS. Ice-cold FACS buffer (2% FBS in PBS) was added to skin samples to stop the reaction. Then samples were placed on 70 μm cell strainers and ground using a cell strainer pestle to create a single cell suspension. Cells were spun at 180 g for 5 min at 4° C. and resuspended in FACS buffer.
(§1) 1×10^6 cells were stained with F4/80-PE/Cy7 (1:200), CD45-alexaflour700 (1:200) and Gr1-PE (1:200) for 30 min on ice in the dark. Samples were washed three times with FACS buffer and analyzed with a Cytek Aurora cytometer. Results were analyzed with FlowJo software (Tree Star, USA).

[3] = tested on: mouse peritoneum (NOD1/NOD2 response); experiment: neutrophil recruitment to the peritoneum after intraperitoneal injection; format: in vivo; conditions: 3 h, iE-DAP 30 μM, MDP 10 μM
Protocol: For peritoneal cell extraction, animals were euthanized and cells from peritoneal cavity were isolated by peritoneal lavage (58). Harvested cell suspensions were centrifuged at 300 g for 5 min at 4° C. and resuspended in FACS buffer.
as §1

tape stripped mouse skin = experiment: neutrophil recruitment after topical application to tape stripped skin; format: in vivo; conditions: topical 10 μl of 30 μM iE-DAP on tape stripped skin, 3 h
Protocol: The epidermal barrier of the dorsal ear pinnae was disrupted by mild tape stripping. A small piece of surgical tape (Transpore surgical tape) was manually applied to the skin and removed, repeated 5 consecutive rounds using a fresh piece of tape for each round. Then, 10^7 CFU C. accolens or 30 μM iE-DAP in 50% glycerol was applied to one pinna and 50% glycerol was applied to contralateral pinna. After 3 h mice were euthanized, and pinnae were processed as described above.

[4] = tested on: primary human foreskin keratinocytes; experiment: Propidium Iodide (PI) uptake assay in primary human foreskin keratinocytes; format: cell-based; conditions: indicated iE-DAP doses, standard tissue culture
[5] = tested on: HSE dermal fibroblasts (CXCL8); experiment: CXCL8 induction in Human Skin Equivalents (HSE) skin organoids; format: cell-based; conditions: HSE epidermis treated with 30 μM iE-DAP for 24 h
[6] = tested on: primary dermal fibroblasts; experiment: CXCL1 (KC) ELISA from primary dermal fibroblasts; format: cell-based, mouse; conditions: iE-DAP 30 μM or IL-1α 10 ng/ml, 24 hrs
Protocol: Mouse dermal fibroblasts were isolated as described herein. In brief, mouse pinnae were incubated on a table shaker (200 rpm) in a collagenase D-pronase solution [2.5 mg/ml collagenase-D (Sigma), 20 mg/ml pronase (Sigma) diluted in 1M Tris, pH 8.0 and containing 1 μM EDTA (Sigma)] for 90 min at 37° C. Fibroblasts were then isolated by pressing digested skin through a 70 μm cell strainer, and cells were collected and cultured in RPMI 1640 medium with 10% FBS, 50 μM 2-mercaptoethanol, 100 μM asparagine, 2 mM glutamine, 1% penicillin-streptomycin for 2-4 passages before stimulating with immune elicitors, and/or harvesting media or cells.
For cytokine ELISAs from dermal fibroblast, cells were challenged with IL-1α (10 ng/ml) or 30 μM iE-DAP for 24 h, and media was collected and processed for ELISA as described above.

NC(CCCC(NC(=O)CC[C@@H](N)C(=O)O)C(=O)O)C(=O)O (stereo in doubt) [iE-DAP, γ-D-Glu-mDAP]
IL-1α release by keratinocytes ([1]; 30 μM iE DAP, 24 h): released IL-1α
induction of TNF, IL-6, IL-1β and IL-17 in keratinocytes ([1]; 30 μM iE-DAP, 24 hrs): not induced
effect on cytosolic accumulation / cellular uptake of click-iE-DAP (Slc46a2): interfered
neutrophil / leukocyte recruitment to the skin in WT mice ([2]; intradermal 10 μl, LPS 10 μg/ml, 1 to 24 h): recruited inflammatory cells
neutrophil recruitment response in Slc46a2-deficient mice compared to WT ([2]; intradermal, 3 h, Tri-DAP 25 μM, C12-iE-DAP 20 μM, MDP 10 μM): failed to respond; also recorded: significantly reduced
neutrophil recruitment response in Slc46a2−/− mice [3]: did not respond
neutrophil recruitment response in Slc46a3−/− mice [3]: responding normally
neutrophil recruitment response of WT skin (tape stripped mouse skin): responded
membrane permeabilization of primary human keratinocytes (PI uptake) [4]: failed to induce; also recorded: did not induce cell permeabilization
CXCL8 in HSE dermal fibroblasts [5]: induction of CXCL8; also recorded: High expression of CXCL8
CXCL1 (KC) response of primary dermal fibroblasts [6]: did not respond; also recorded: unresponsive
